According to patent EP0007672A1, “Isocyanoalkenes, process and useful intermediates for their preparation, pharmaceutical and fungicidal preparations containing those isocyanoalkenes and the use of the fungicidal preparations in agriculture” (GIST-BROCADES N.V., priority 1978, dated 1980):
Values after ≈ are worked out from the molar mass of the structure shown. Read-outs that look alike come from different tables or passages of the source.

How the values were obtained:
Test in all cases: MIC (Minimum Inhibitory Concentration)
Type in all cases: cell-based
[1] = tested on: Trichophyton mentagrophytus
Fusarium solani = details: read-out: MIC values
[2] = tested on: Trichophyton soudanese joyeux; details: read-out: MIC values
Rhizoctonia solani = details: read-out: MIC values
Candida albicans = tested on: Candida albicans
Trichophyton equinum = tested on: Trichophyton equinum
Trichophyton rubrum = tested on: Trichophyton rubrum
Trichophyton violoceum = details: read-out: MIC values
[3] = tested on: Trichophyton schoenleinii; details: read-out: MIC values
Trichophyton quickeaneum = details: read-out: MIC values
Fusarium (tulip) = Fusarium (tulip) A 3253
Fusarium (bulb) = Fusarium (bulb) A 3252
Trichophyton tonsurans = details: Trichophyton tonsurans, read-out: MIC values
[4] = tested on: Streptococcus haemolyticus; details: Streptococcus, read-out: MIC values
Trichophyton verrucosum = tested on: Trichophyton verrucosum
Pasteurella multocida = details: Pasteurella multocida, read-out: MIC values
[5] = read-out: MIC values, Trichophyton mentagrophytus 367-68
[6] = read-out: MIC values, Trichophyton mentagrophytus 421-67
[7] = read-out: MIC values, Trichophyton mentagrophytus A 3252
[8] = read-out: MIC values, Trichophyton mentagrophytus R 177
[9] = read-out: MIC values, Trichophyton mentagrophytus R 178
[10] = read-out: MIC values, Trichophyton mentagrophytus RRL 305
[11] = read-out: MIC values, Candida albicans A 7
[12] = read-out: MIC values, Candida albicans A 3140
[13] = read-out: MIC values, Candida albicans A 3141
[14] = read-out: MIC values, Candida albicans A 3142
[15] = read-out: MIC values, Candida albicans A 3143
[16] = read-out: MIC values, Candida albicans A 3144
[17] = read-out: MIC values, Candida albicans A 3145
[18] = read-out: MIC values, Candida albicans A 3165
[19] = read-out: MIC values, Candida albicans A 3166
[20] = read-out: MIC values, Candida albicans A 3167
[21] = read-out: MIC values, Candida albicans A 3168
[22] = read-out: MIC values, Candida albicans A 3169
[23] = read-out: MIC values, Candida albicans A 3171
[24] = read-out: MIC values, Candida albicans A 3184
[25] = read-out: MIC values, Candida albicans A 3190
[26] = read-out: MIC values, Candida albicans A 3191
[27] = read-out: MIC values, Candida albicans A 3192
[28] = read-out: MIC values, Candida albicans A 3194
[29] = read-out: MIC values, Candida albicans A 3196
[30] = read-out: MIC values, Trichophyton equinum 182-76
[31] = read-out: MIC values, Trichophyton equinum 856-71
[32] = read-out: MIC values, Trichophyton rubrum 494-62
[33] = read-out: MIC values, Trichophyton rubrum A 810

SMILES: [C-]#[N+]C(=C1CCCCC1)S(=O)(=O)c1ccc(C)cc1 [Example 7, a-cyclohexylidene-a-(4-toluenesulphonyl)-methylisocyanide]
- MIC [1, 5]: 0.8 mg/L (≈ 2.91 µM)
- MIC [1, 6]: 1.5 mg/L (≈ 5.45 µM)
- MIC [1, 7]: 0.8 mg/L (≈ 2.91 µM)
- MIC [1, 8]: 3 mg/L (≈ 10.9 µM)
- MIC [1, 9]: 12.5 mg/L (≈ 45.4 µM)
- MIC [1, 10]: 1.5 mg/L (≈ 5.45 µM)
- MIC (Fusarium solani; Fusarium solani): 12.5 mg/L (≈ 45.4 µM)
- MIC ([2]; Trichophyton): 12.5 mg/L (≈ 45.4 µM)
- MIC (Rhizoctonia solani; Rhizoctonia solani): 1.5 mg/L (≈ 5.45 µM)
- MIC (Candida albicans; [11]): 0.8 mg/L (≈ 2.91 µM)
- MIC (Candida albicans; [12]): 3 mg/L (≈ 10.9 µM)
- MIC (Candida albicans; [13]): 12.5 mg/L (≈ 45.4 µM)
- MIC (Candida albicans; [14]): 12.5 mg/L (≈ 45.4 µM)
- MIC (Candida albicans; [15]): 6 mg/L (≈ 21.8 µM)
- MIC (Candida albicans; [16]): 6 mg/L (≈ 21.8 µM)
- MIC (Candida albicans; [17]): 6 mg/L (≈ 21.8 µM)
- MIC (Candida albicans; [18]): 6 mg/L (≈ 21.8 µM)
- MIC (Candida albicans; [19]): 6 mg/L (≈ 21.8 µM)
- MIC (Candida albicans; [20]): 6 mg/L (≈ 21.8 µM)
- MIC (Candida albicans; [21]): 6 mg/L (≈ 21.8 µM)
- MIC (Candida albicans; [22]): 6 mg/L (≈ 21.8 µM)
- MIC (Candida albicans; [23]): 6 mg/L (≈ 21.8 µM)
- MIC (Candida albicans; [24]): 3 mg/L (≈ 10.9 µM)
- MIC (Candida albicans; [25]): 3 mg/L (≈ 10.9 µM)
- MIC (Candida albicans; [26]): 6 mg/L (≈ 21.8 µM)
- MIC (Candida albicans; [27]): 6 mg/L (≈ 21.8 µM)
- MIC (Candida albicans; [28]): 6 mg/L (≈ 21.8 µM)
- MIC (Candida albicans; [29]): 12.5 mg/L (≈ 45.4 µM)
- MIC (Trichophyton equinum; [30]): 3 mg/L (≈ 10.9 µM)
- MIC (Trichophyton equinum; [31]): 3 mg/L (≈ 10.9 µM)
- MIC (Trichophyton rubrum; [32]): 0.8 mg/L (≈ 2.91 µM)
- MIC (Trichophyton rubrum; [33]): 0.8 mg/L (≈ 2.91 µM)
- MIC (Trichophyton violoceum; Trichophyton): 0.2 mg/L (≈ 0.726 µM)
- MIC ([3]; Trichophyton schoenleinii): 0.2 mg/L (≈ 0.726 µM)
- MIC (Trichophyton quickeaneum; Trichophyton): 0.8 mg/L (≈ 2.91 µM)
- MIC (Fusarium (tulip)): 12.5 mg/L (≈ 45.4 µM)
- MIC (Fusarium (bulb)): 18.8 mg/L (≈ 68.3 µM)

SMILES: [C-]#[N+]C(=C1CCCC1)S(=O)(=O)c1ccc(C)cc1 [Example 9, a-cyclopentylidene-a-(4-toluenesulphonyl)-methylisocyanide]
- MIC [1, 5]: 3 mg/L (≈ 11.5 µM)
- MIC [1, 6]: 6 mg/L (≈ 23 µM)
- MIC [1, 7]: 1.5 mg/L (≈ 5.74 µM)
- MIC [1, 8]: 3 mg/L (≈ 11.5 µM)
- MIC [1, 9]: 12.5 mg/L (≈ 47.8 µM)
- MIC [1, 10]: 0.8 mg/L (≈ 3.06 µM)
- MIC (Fusarium solani; Fusarium solani): 12.5 mg/L (≈ 47.8 µM)
- MIC ([2]; Trichophyton): 6 mg/L (≈ 23 µM)
- MIC (Rhizoctonia solani; Rhizoctonia solani): 1.5 mg/L (≈ 5.74 µM)
- MIC (Trichophyton tonsurans): 6 mg/L (≈ 23 µM)
- MIC (Candida albicans; [11]): 0.8 mg/L (≈ 3.06 µM)
- MIC (Candida albicans; [12]): 1.5 mg/L (≈ 5.74 µM)
- MIC (Candida albicans; [13]): 3 mg/L (≈ 11.5 µM)
- MIC (Candida albicans; [14]): 1.5 mg/L (≈ 5.74 µM)
- MIC (Candida albicans; [15]): 0.8 mg/L (≈ 3.06 µM)
- MIC (Candida albicans; [16]): 1.5 mg/L (≈ 5.74 µM)
- MIC (Candida albicans; [17]): 1.5 mg/L (≈ 5.74 µM)
- MIC (Candida albicans; [18]): 3 mg/L (≈ 11.5 µM)
- MIC (Candida albicans; [19]): 6 mg/L (≈ 23 µM)
- MIC (Candida albicans; [20]): 3 mg/L (≈ 11.5 µM)
- MIC (Candida albicans; [21]): 6 mg/L (≈ 23 µM)
- MIC (Candida albicans; [22]): 3 mg/L (≈ 11.5 µM)
- MIC (Candida albicans; [23]): 3 mg/L (≈ 11.5 µM)
- MIC (Candida albicans; [24]): 1.5 mg/L (≈ 5.74 µM)
- MIC (Candida albicans; [25]): 1.5 mg/L (≈ 5.74 µM)
- MIC (Candida albicans; [26]): 0.8 mg/L (≈ 3.06 µM)
- MIC (Candida albicans; [27]): 0.8 mg/L (≈ 3.06 µM)
- MIC (Candida albicans; [28]): 0.8 mg/L (≈ 3.06 µM)
- MIC (Candida albicans; [29]): 3 mg/L (≈ 11.5 µM)
- MIC (Trichophyton equinum; [30]): 3 mg/L (≈ 11.5 µM)
- MIC (Trichophyton equinum; read-out: MIC values, Trichophyton equinum 441-51): 0.1 mg/L (≈ 0.383 µM)
- MIC (Trichophyton equinum; [31]): < 0.05 mg/L
- MIC (Trichophyton rubrum; read-out: MIC values, Trichophyton rubrum 218-65): 0.8 mg/L (≈ 3.06 µM)
- MIC (Trichophyton rubrum; [32]): 1.5 mg/L (≈ 5.74 µM)
- MIC (Trichophyton rubrum; [33]): 0.1 mg/L (≈ 0.383 µM)
- MIC [4]: 25 mg/L (≈ 95.7 µM)
- MIC (Trichophyton verrucosum; read-out: MIC values, Trichophyton verrucosum 134-66): < 0.05 mg/L
- MIC (Trichophyton verrucosum; read-out: MIC values, Trichophyton verrucosum A 2922): 0.4 mg/L (≈ 1.53 µM)
- MIC (Trichophyton violoceum; Trichophyton): 0.4 mg/L (≈ 1.53 µM)
- MIC ([3]; Trichophyton schoenleinii): 0.4 mg/L (≈ 1.53 µM)
- MIC (Pasteurella multocida): 3 mg/L (≈ 11.5 µM)
- MIC (Trichophyton quickeaneum; Trichophyton): 1.5 mg/L (≈ 5.74 µM)
- MIC (Fusarium (tulip)): 12.5 mg/L (≈ 47.8 µM)
- MIC (Fusarium (bulb)): 25 mg/L (≈ 95.7 µM)

SMILES: [C-]#[N+]C(=Cc1ccccc1)S(=O)(=O)c1ccc(C)cc1 [Example 1, 1-isocyano-2-phenyl-1-(4-toluenesulphonyl)-ethene]
- MIC ([1]; Trichophyton mentagrophytus 367-68, read-out: MIC values): 1.5 mg/L (≈ 5.29 µM)
- MIC ([1]; Trichophyton mentagrophytus 421-67, read-out: MIC values): 1.5 mg/L (≈ 5.29 µM)
- MIC ([1]; Trichophyton mentagrophytus A 3252, read-out: MIC values): 1.5 mg/L (≈ 5.29 µM)
- MIC ([1]; Trichophyton mentagrophytus R 177, read-out: MIC values): 6 mg/L (≈ 21.2 µM)
- MIC ([1]; Trichophyton mentagrophytus R 178, read-out: MIC values): > 100 mg/L
- MIC ([1]; Trichophyton mentagrophytus RRL 305, read-out: MIC values): 6 mg/L (≈ 21.2 µM)
- MIC (Fusarium solani; Fusarium solani A 3245): 50 mg/L (≈ 176 µM)
- MIC ([2]; Trichophyton soudanese joyeux 440-63): 12.5 mg/L (≈ 44.1 µM)
- MIC (Rhizoctonia solani; Rhizoctonia solani 200-25): 4.5 mg/L (≈ 15.9 µM)
- MIC (Candida albicans; Candida albicans A 7, read-out: MIC values): 1.5 mg/L (≈ 5.29 µM)
- MIC (Candida albicans; Candida albicans A 3140, read-out: MIC values): 12.5 mg/L (≈ 44.1 µM)
- MIC (Candida albicans; Candida albicans A 3141, read-out: MIC values): 12.5 mg/L (≈ 44.1 µM)
- MIC (Candida albicans; Candida albicans A 3142, read-out: MIC values): 12.5 mg/L (≈ 44.1 µM)
- MIC (Candida albicans; Candida albicans A 3143, read-out: MIC values): 12.5 mg/L (≈ 44.1 µM)
- MIC (Candida albicans; Candida albicans A 3144, read-out: MIC values): 12.5 mg/L (≈ 44.1 µM)
- MIC (Candida albicans; Candida albicans A 3145, read-out: MIC values): 12.5 mg/L (≈ 44.1 µM)
- MIC (Candida albicans; Candida albicans A 3165, read-out: MIC values): 25 mg/L (≈ 88.2 µM)
- MIC (Candida albicans; Candida albicans A 3166, read-out: MIC values): 12.5 mg/L (≈ 44.1 µM)
- MIC (Candida albicans; Candida albicans A 3167, read-out: MIC values): 25 mg/L (≈ 88.2 µM)
- MIC (Candida albicans; Candida albicans A 3168, read-out: MIC values): 12.5 mg/L (≈ 44.1 µM)
- MIC (Candida albicans; Candida albicans A 3169, read-out: MIC values): 12.5 mg/L (≈ 44.1 µM)
- MIC (Candida albicans; Candida albicans A 3171, read-out: MIC values): 12.5 mg/L (≈ 44.1 µM)
- MIC (Candida albicans; Candida albicans A 3184, read-out: MIC values): 12.5 mg/L (≈ 44.1 µM)
- MIC (Candida albicans; Candida albicans A 3190, read-out: MIC values): 6 mg/L (≈ 21.2 µM)
- MIC (Candida albicans; Candida albicans A 3191, read-out: MIC values): 12.5 mg/L (≈ 44.1 µM)
- MIC (Candida albicans; Candida albicans A 3192, read-out: MIC values): 6 mg/L (≈ 21.2 µM)
- MIC (Candida albicans; Candida albicans A 3194, read-out: MIC values): 25 mg/L (≈ 88.2 µM)
- MIC (Candida albicans; Candida albicans A 3196, read-out: MIC values): 12.5 mg/L (≈ 44.1 µM)
- MIC (Trichophyton equinum; Trichophyton equinum 182-76, read-out: MIC values): 3 mg/L (≈ 10.6 µM)
- MIC (Trichophyton equinum; Trichophyton equinum 856-71, read-out: MIC values): 3 mg/L (≈ 10.6 µM)
- MIC (Trichophyton rubrum; Trichophyton rubrum 494-62, read-out: MIC values): 0.1 mg/L (≈ 0.353 µM)
- MIC (Trichophyton violoceum; Trichophyton violoceum 442-62): 0.1 mg/L (≈ 0.353 µM)
- MIC ([3]; Trichophyton schoenleinii 435-63): 0.1 mg/L (≈ 0.353 µM)
- MIC (Trichophyton quickeaneum; Trichophyton quickeaneum A 2040): 3 mg/L (≈ 10.6 µM)
- MIC (Fusarium (tulip)): 50 mg/L (≈ 176 µM)
- MIC (Fusarium (bulb)): > 100 mg/L
